molecular target: T1, full-length human PKC-α enzyme (Homo sapiens, UniProt P17252); experiment: Assessment of PKC-α Inhibitory Activity (MALDI-TOF kinase assay); type: biochemical; conditions: full-length human PKC-α 0.12 μg/ml; ATP 45 μM; neurogranin 28-43 peptide 22 μM; 30 minute incubation at 24° C.; MALDI-TOF readout
T1 construct: performed using full-length human PKC-α enzyme (Upstate Biotechnology); purchased Upstate Biotechnology
Protocol: Measurement of PKC-α enzyme activity is performed using full-length human PKC-α enzyme (Upstate Biotechnology) at a final concentration of 0.12 μg/ml in a kinase assay buffer (0.09 mg/ml bovine serum albumin (BSA), 210 μM ethylenediaminetetraacetic acid (EDTA), 360 μM CaCl2, 1 mM Tris-HCl, pH=7.5, 0.5 mM MgCl2, 0.015 mg/ml phosphatidylserine and 0.015 mg/ml diacylglycerol). The reaction is initiated by addition of adenosine triphosphate (ATP; final concentration 45 μM) and a peptide substrate consisting of amino acids 28-43 (Ala-Ala-Lys-Ile-Gln-Ala-Ser-Phe-Arg-Gly-His-Met-Ala-Arg-Lys-Lys) of neurogranin (Promega; final concentration 22 μM). After a 30 minute incubation at 24° C. the reaction is terminated by adding 5 μL of the reaction mixture into 50 μL of MALDI matrix solution (5 mg/ml α-cyano-4-hydroxycinnamic acid in 50% Acetonitrile/H2O, 0.1% TFA, 5 mM ammonium phosphate). Two microliters of the stopped reaction mixture is transferred onto a MALDI-TOF mass spectrometer target plate.
All spectra are collected on an Applied Biosystems 4700 Proteomics Analyzer MALDI-TOF MS equipped with a Nd:YAG laser (355 nm, 3 ns pulse width, 200 Hz repetition rate) in negative ion reflector mode. The system is operated with 4700 Explorer software, version 3.0. Automated acquisition parameters are adjusted to capture and average only those individual spectra within defined success criteria. Specifically, signal intensities for the substrate peptide are set to a minimum threshold of 3000 counts and a maximum intensity of 65,000 counts. This ensured that neither null spectra nor saturated spectra are averaged into the final readout. Between 1000 and 1500 laser shots are averaged for each sample. Data are collected in triplicate from 3 successive days to capture the maximum variability related to preparation of enzyme reaction, transfer of samples to MALDI target plates, data collection, and data extraction.
The isotope cluster areas for each peptide substrate and product peaks are extracted into a Microsoft Excel worksheet from the 10×10 array of spectral data simultaneously using the automated analysis function provided within the 4700 Explore software. The isotope cluster area is defined by the software algorithm based on the molecular weight and the general elemental composition of the peptides. The percent conversion (% C) of substrate to product is calculated as the cluster area of the product (P) divided by the sum of the cluster areas of the substrate (S) and the product multiplied by 100 as represented by the following equation: […]
For dose-dependent inhibition studies, the inhibition is plotted as a % Maximal Activity (% MA). Equation one is a measure of the ratio of product to substrate then solving for the % C. However, to measure inhibition of the enzyme activity, one must measure the degree to which that activity (% C) is curtailed. Thus the dose-dependant inhibition data is plotted as % MA where the maximal activity is the % C measured in control reactions with no inhibitor as represented by the following equation: […]

Question: With `CN(C)CCCNc1ccnc(Nc2ccc(F)c(Cl)c2)n1` [compound 27] as the compound, how does the IC50 read?
Answer: The IC50 was 8 nM.

Question: `CN(C)CCCNc1ccnc(Nc2cccc(Cl)c2)n1` [No. 3, N^2-(3-chlorophenyl)-N^4-[3-(dimethylamino)propyl]pyrimidine-2,4-diamine] was tested. Which IC50 did it give?
Answer: Its IC50 is 312 nM.

Question: With `CN(C)CCNc1ccnc(Nc2cccc(Cl)c2)n1` [compound 69] as the compound, how does the IC50 read?
Answer: Its IC50 is 83 nM.

Question: Which IC50 does the source give for `CN(C)CCCNc1ccnc(Nc2cccc(C(F)(F)F)c2)n1` [compound 39] here?
Answer: The IC50 was 0.5 nM.

Question: `Cc1nc(-c2cccc(Nc3nccc(NCCCN(C)C)n3)c2)cs1` [compound 105] was tested. Which IC50 did it give?
Answer: Its IC50 is 48 nM.

Question: How did the IC50 turn out when `CN(C)CCCNc1ccnc(Nc2ccc(Cl)c(C(F)(F)F)c2)n1` [compound 45] was run?
Answer: The IC50 was 3 nM.

Question: For `CCN(CC)CCCNc1ccnc(Nc2cccc(Cl)c2)n1` [compound 6], which IC50 is on record?
Answer: The IC50 was 1 nM.

Question: With `CN(C)CCCNc1ccnc(Nc2ccc(Cl)c(Cl)c2)n1` [compound 15] as the compound, how does the IC50 read?
Answer: Its IC50 is 15 nM.

Question: Which IC50 does the source give for `CN(C)CCCNc1ccnc(Nc2cccc(Cl)c2F)n1` [compound 25] here?
Answer: Its IC50 is 23 nM.

Question: Which IC50 does the source give for `CN(C)CCCNc1ccnc(Nc2cccc(-c3ccccc3)c2)n1` [compound 87] here?
Answer: Its IC50 is 0.4 nM.

Question: With `COc1cccc(Nc2nccc(NCCCN(C)C)n2)c1` [compound 51] as the compound, how does the IC50 read?
Answer: The IC50 was 14 nM.

Question: `CN(C)CC(C)(C)CNc1ccnc(Nc2cccc(C(F)(F)F)c2)n1` [No. 75, N^4-[3-(dimethylamino)-2,2-dimethylpropyl]-N^2-[3-(trifluoromethyl)phenyl]pyrimidine-2,4-diamine] was tested. Which IC50 did it give?
Answer: The IC50 was 4 nM.

Question: `CN(C)CCCCNc1ccnc(Nc2cccc(Cl)c2)n1` [No. 81, N^2-(3-chlorophenyl)-N^4-[4-(dimethylamino)butyl]pyrimidine-2,4-diamine] was tested. Which IC50 did it give?
Answer: The IC50 was 0.8 nM.

Question: `Cc1cccc(Nc2nccc(NCCCN(C)C)n2)c1` [compound 55] was tested. Which IC50 did it give?
Answer: The IC50 was 40 nM.

Question: Which IC50 does the source give for `CN(C)CCCCNc1ccnc(Nc2cccc(Cl)c2)n1` [compound 81] here?
Answer: Its IC50 is 12 nM.

Question: How did the IC50 turn out when `Cc1ccc(Nc2nccc(NCCCN(C)C)n2)cc1Cl` [compound 21] was run?
Answer: The IC50 was 3 nM.

Question: With `Cc1cccc(Nc2nccc(NCCCN(C)C)n2)c1` [compound 58] as the compound, how does the IC50 read?
Answer: Its IC50 is 93 nM.

Question: With `CN(C)CCCNc1ccnc(Nc2ccc(F)c(F)c2)n1` [compound 33] as the compound, how does the IC50 read?
Answer: Its IC50 is 65 nM.

Source: patent US8158641B2, “2-anilino-4-aminoalkyleneaminopyrimidines” (Boehringer Ingelheim International GmbH, priority 2006, dated 2012)
